The assay has as its target T1, Histone deacetylase 8 (Homo sapiens, UniProt Q9BY41).
T1 sequence (Q9BY41 whole entry): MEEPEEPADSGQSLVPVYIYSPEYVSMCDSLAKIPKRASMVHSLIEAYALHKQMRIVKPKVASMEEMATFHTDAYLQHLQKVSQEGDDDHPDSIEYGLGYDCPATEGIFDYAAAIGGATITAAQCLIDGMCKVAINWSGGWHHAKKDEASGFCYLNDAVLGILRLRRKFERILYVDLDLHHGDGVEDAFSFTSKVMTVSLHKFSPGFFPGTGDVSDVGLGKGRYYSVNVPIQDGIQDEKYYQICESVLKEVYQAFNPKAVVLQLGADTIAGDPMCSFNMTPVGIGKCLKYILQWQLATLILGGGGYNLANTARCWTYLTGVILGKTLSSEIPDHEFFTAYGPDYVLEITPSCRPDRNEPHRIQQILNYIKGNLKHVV
The experiment in a line: Inhibition of full length human recombinant HDAC8 expressed in baculovirus infected insect S9 cells using Ac-Leu-GlyLys(Tfa)-AMC as substrate after 30 mins by fluorescence assay.

One may read the IC50 as the concentration at which inhibition is half-maximal.

Consider `O=C(CCCCCOc1no[n+]([O-])c1S(=O)(=O)c1ccccc1)NO`, for which the IC50 is 343 nM.

Source of the values: ChEMBL document CHEMBL3425494, “Design, synthesis, and antitumor evaluation of novel histone deacetylase inhibitors equipped with a phenylsulfonylfuroxan module as a nitric oxide donor” (J Med Chem, 2015).
